Experimental data: ChEMBL document CHEMBL1156786, “Conformationally constrained mimetics of laminin peptide YIGSR as precursors for antimetastatic disintegrins” (J Med Chem, 2009)
Where a SMILES comes first, the peptide text is derived from it.

How the values were obtained:
Assay type in all cases: cell-based
[1] = target: Small ribosomal subunit protein uS2 (Homo sapiens) (UniProt P08865); experiment: Binding affinity to LAMR1 in human HT1080 cells assessed as maximal cell attachment to compound coated plates after 3 hrs by hemocytometer; settings: HT-1080
[2] = target: Small ribosomal subunit protein uS2 (Homo sapiens) (UniProt P08865); experiment: Binding affinity to LAMR1 in human HeLa cells assessed as maximal cell attachment to compound coated plates after 3 hrs by hemocytometer
[3] = target: Small ribosomal subunit protein uS2 (Mus musculus) (UniProt P14206); experiment: Binding affinity to LAMR1 in mouse B16-F10 cells assessed as maximal cell attachment to compound coated plates after 3 hrs by hemocytometer
[4] = target: Small ribosomal subunit protein uS2 (Homo sapiens) (UniProt P08865); experiment: Binding affinity to LAMR1 in human HT1080 cells assessed as maximal cell attachment to compound coated plates at 0.2 ug/well after 3 hrs by hemocytometer; settings: HT-1080
[5] = target: Small ribosomal subunit protein uS2 (Homo sapiens) (UniProt P08865); experiment: Binding affinity to LAMR1 in human HT1080 cells assessed as maximal cell attachment to compound coated plates at 20 ug/well after 3 hrs by hemocytometer; settings: HT-1080

Activity [1] [%] | Activity [2] [%] | Activity [3] [%] | Activity [4] [%] | Activity [5] [%] | SMILES
48 |  |  |  |  | CC[C@H](C)[C@@H]1NC(=O)[C@H](Cc2ccc(O)cc2)NC(=O)[C@H](CC(N)=O)NC(=O)[C@H](CCCNC(=N)N)NC(=O)[C@H](CO)NC(=O)[C@@H](CO)NC(=O)[C@H]([C@@H](C)CC)NC(=O)[C@H](Cc2ccc(O)cc2)NC(=O)[C@H](CC(N)=O)NC(=O)[C@H](CCCNC(=N)N)NC(=O)[C@H](CO)NC(=O)[C@@H](CO)NC1=O
56 | 32 |  |  |  | CC[C@H](C)[C@@H]1NC(=O)[C@H](Cc2ccc(O)cc2)NC(=O)[C@H](CC(N)=O)NC(=O)[C@H](CCCNC(=N)N)NC(=O)[C@H](CO)NC(=O)CNC1=O (cyclo(GSRNYI))
75 |  |  |  |  | CC[C@H](C)[C@@H]1NC(=O)[C@H](Cc2ccc(O)cc2)NC(=O)CNC(=O)[C@@H]2CCCN2C(=O)[C@H](CC(=O)O)NC(=O)[C@H](CCCNC(=N)N)NC(=O)[C@H](CO)NC(=O)[C@@H](CO)NC1=O
53 | 32 |  |  |  | CC[C@H](C)[C@@H]1NC(=O)[C@H](Cc2ccc(O)cc2)NC(=O)[C@H](CC(N)=O)NC(=O)[C@H](CCCNC(=N)N)NC(=O)[C@H](CO)NC(=O)[C@@H]2CCCN2C1=O (cyclo(IPSRNY))
81 | 46 | 45 | 20 | 40 | CC[C@H](C)[C@@H]1NC(=O)[C@H](Cc2ccc(O)cc2)NC(=O)[C@H](CC(N)=O)NC(=O)[C@H](CCCNC(=N)N)NC(=O)[C@H](CO)NC(=O)[C@@H](CO)NC1=O
76 | 43 | 58 |  |  | CC[C@H](C)[C@@H]1NC(=O)[C@H](Cc2ccc(O)cc2)NC(=O)[C@H](CC(N)=O)NC(=O)[C@H](CCCNC(=N)N)NC(=O)[C@H](CO)NC(=O)[C@@H](CCC(=O)O)NC1=O
62 |  |  |  |  | CC[C@H](C)[C@@H]1NC(=O)[C@H](Cc2ccc(O)cc2)NC(=O)CNC(=O)[C@@H]2CCCN2C(=O)[C@H](CC(=O)O)NC(=O)[C@H](CCCNC(=N)N)NC(=O)[C@H](CO)NC(=O)[C@@H](CCC(=O)O)NC1=O
72 | 45 | 68 |  |  | CC[C@H](C)[C@@H]1NC(=O)[C@H](Cc2ccc(O)cc2)NC(=O)CNC(=O)[C@H](CCCNC(=N)N)NC(=O)[C@H](CO)NC(=O)[C@@H](CO)NC1=O
45 |  |  |  |  | CC[C@H](C)[C@@H]1NC(=O)[C@H](Cc2ccc(O)cc2)NC(=O)CNC(=O)[C@@H]2CCCN2C(=O)[C@H](CC(=O)O)NC(=O)[C@H](CCCNC(=N)N)NC(=O)[C@H](CO)NC(=O)[C@@H](CCCCN)NC1=O
64 | 29 |  |  |  | CC[C@H](C)[C@@H]1NC(=O)[C@H](Cc2ccc(O)cc2)NC(=O)[C@H](CC(N)=O)NC(=O)[C@H](CCCNC(=N)N)NC(=O)[C@H](CO)NC(=O)[C@@H](CCCCN)NC1=O
76 |  |  |  |  | CC[C@H](C)[C@@H]1NC(=O)[C@H](Cc2ccc(O)cc2)NC(=O)[C@H]2CCCN2C(=O)[C@H](CCCNC(=N)N)NC(=O)[C@H](CO)NC(=O)[C@@H](CO)NC1=O
67 | 40 | 62 |  |  | CC[C@H](C)[C@@H]1NC(=O)[C@H](Cc2ccc(O)cc2)NC(=O)CNC(=O)[C@@H]2CCCN2C(=O)[C@H](CC(=O)O)NC(=O)[C@H](CCCNC(=N)N)NC(=O)[C@H](CO)NC(=O)CNC1=O (cyclo(DPGYIGSR))
57 |  |  |  |  | CC[C@H](C)[C@@H]1NC(=O)[C@H](Cc2ccc(O)cc2)NC(=O)[C@H](CC(N)=O)NC(=O)[C@H](CCCNC(=N)N)NC(=O)[C@H](CO)NC(=O)[C@@H]2CCCN2C(=O)[C@H]([C@@H](C)CC)NC(=O)[C@H](Cc2ccc(O)cc2)NC(=O)[C@H](CC(N)=O)NC(=O)[C@H](CCCNC(=N)N)NC(=O)[C@H](CO)NC(=O)[C@@H]2CCCN2C1=O (cyclo(IPSRNYIPSRNY))

SMILES | Activity [1] [%] | Activity [2] [%] | Activity [3] [%] | Activity [4] [%] | Activity [5] [%]
CC[C@H](C)[C@H](NC(=O)[C@@H](N)Cc1ccc(O)cc1)C(=O)NCC(=O)N[C@@H](CO)C(=O)N[C@@H](CCCNC(=N)N)C(=O)N[C@H](C)C(=O)N[C@H](CCSC)C(=O)O | 53 | 31 |  |  | 
